Each compound was assayed against T1, NLRP3 (Homo sapiens, UniProt Q96P20) (assay: THP-1 Cells Pyroptosis Assay). Conditions: THP-1 cells with 1.0 μg/ml LPS; compound 3 hours; nigericin 5 μM 1 hr; resazurin readout.
T1 construct: Seed THP-1 cells (25,000 cells/well) containing 1.0 μg/ml LPS in 40 μl of RPMI medium; host or cells: THP-1 cells
T1 sequence (Q96P20 whole entry): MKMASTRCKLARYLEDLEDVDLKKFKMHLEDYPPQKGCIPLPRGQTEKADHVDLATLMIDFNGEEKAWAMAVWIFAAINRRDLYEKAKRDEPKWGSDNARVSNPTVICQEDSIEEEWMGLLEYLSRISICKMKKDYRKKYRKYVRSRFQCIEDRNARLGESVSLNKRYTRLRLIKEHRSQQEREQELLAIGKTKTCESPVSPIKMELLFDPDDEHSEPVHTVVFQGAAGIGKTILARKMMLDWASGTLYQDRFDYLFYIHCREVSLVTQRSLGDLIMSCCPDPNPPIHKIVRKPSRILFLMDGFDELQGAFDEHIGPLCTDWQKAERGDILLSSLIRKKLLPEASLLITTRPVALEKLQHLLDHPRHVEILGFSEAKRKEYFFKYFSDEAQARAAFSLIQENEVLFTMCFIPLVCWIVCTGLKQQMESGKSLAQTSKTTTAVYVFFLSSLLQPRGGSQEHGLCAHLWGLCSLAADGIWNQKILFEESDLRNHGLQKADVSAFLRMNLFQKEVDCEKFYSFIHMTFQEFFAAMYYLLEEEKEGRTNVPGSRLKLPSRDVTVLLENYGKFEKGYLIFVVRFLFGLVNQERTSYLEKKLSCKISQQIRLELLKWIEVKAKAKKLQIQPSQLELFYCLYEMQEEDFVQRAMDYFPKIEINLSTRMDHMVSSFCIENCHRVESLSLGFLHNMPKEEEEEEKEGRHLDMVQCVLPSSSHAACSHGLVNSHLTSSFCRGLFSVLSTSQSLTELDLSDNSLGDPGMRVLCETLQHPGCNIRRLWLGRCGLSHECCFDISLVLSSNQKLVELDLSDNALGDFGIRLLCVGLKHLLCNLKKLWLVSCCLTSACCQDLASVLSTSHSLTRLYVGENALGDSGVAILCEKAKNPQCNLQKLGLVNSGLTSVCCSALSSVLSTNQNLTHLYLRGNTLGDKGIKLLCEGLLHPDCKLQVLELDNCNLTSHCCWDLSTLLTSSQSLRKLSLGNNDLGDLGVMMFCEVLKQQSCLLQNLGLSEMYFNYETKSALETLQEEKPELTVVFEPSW
Assay type: cell-based
Experimental: The cells were routinely passaged and grown to confluency (˜10^6 cells/ml). On the day of the experiment, THP-1 cells were harvested and resuspended into RPMI medium (without FBS). The cells were then counted and viability (>90%) checked by Trypan blue (Sigma #T8154). […] To this diluted cell solution was added LPS (Sigma #L4524) to give a 1 μg/ml Final Assay Concentration (FAC). 40 μl of the final preparation was aliquoted into each well of a 96-well plate. The plate thus prepared was used for compound screening.
The following method step-by-step assay was followed for compound screening. • 1. […] Incubate for 3 hours at 37° C., 5% CO2 • 4. Add 5 μl nigericin (Sigma #N7143) (FAC 5 μM) to all wells • 5. Incubate for 1 hr at 37° C., 5% CO2 • 6. At the end of the incubation period, spin plates at 300×g for 3 mins and remove supernatant • 7. Then add 50 μl of resazurin (Sigma #R7017) (FAC 100 μM resazurin in RPMI medium without FBS) and incubate plates for a further 1-2 hours at 37° C. and 5% CO2 • 8.
`Cc1cc(C#N)cc(O)c1-c1ccc2oc(N3CCC4CCN(C)CC43)nc2n1` (single isomer, unassigned) [Example 27B, 4-[2-[(3aR,7aS or 3aS,7aR)-6-methyl-3,3a,4,5,7,7a-hexahydro-2H-pyrrolo[2,3-c]pyridin-1-yl]oxazolo[4,5-b]pyridin-5-yl]-3-hydroxy-5-methyl-benzonitrile] was tested, and the IC50 was 2.7 nM.
Work on `Cc1cc(C(F)(F)F)cc(O)c1-c1ccc2oc(N3CC[C@@H]4CCN(C)C[C@@H]43)nc2n1` (single isomer, unassigned) [Example 37A, 2-[2-[(3aS,7aR)-6-Methyl-3,3a,4,5,7,7a-hexahydro-2H-pyrrolo[2,3-c]pyridin-1-yl]oxazolo[4,5-b]pyridin-5-yl]-3-methyl-5-(trifluoromethyl)phenol or 2-[2-[(3aR,7aS)-6-methyl-3,3a,4,5,7,7a-hexahydro-2H-pyrrolo[2,3-c]pyridin-1-yl]oxazolo[4,5-b]pyridin-5-yl]-3-methyl-5-(trifluoromethyl)phenol] yielded an IC50 of 216 nM.
Compound `Cc1cc(C(F)(F)F)cc(O)c1-c1ccc2oc(N3CC[C@H]4CCN(C)C[C@H]43)nc2n1` (single isomer, unassigned) [Example 37B, 2-[2-[(3aR,7aS)-6-methyl-3,3a,4,5,7,7a-hexahydro-2H-pyrrolo[2,3-c]pyridin-1-yl]oxazolo[4,5-b]pyridin-5-yl]-3-methyl-5-(trifluoromethyl)-phenol or 2-[2-[(3aS,7aR)-6-Methyl-3,3a,4,5,7,7a-hexahydro-2H-pyrrolo[2,3-c]pyridin-1-yl]oxazolo[4,5-b]pyridin-5-yl]-3-methyl-5-(trifluoromethyl)phenol] has an IC50 of 1.1 nM.
With `CCN1CCC2CCN(c3nc4nc(-c5c(C)cc(C#N)cc5O)ccc4o3)C2C1` (single isomer, unassigned) [Example 72A, 4-[2-[(3aS,7aR)-6-Ethyl-3,3a,4,5,7,7a-hexahydro-2H-pyrrolo[2,3-c]pyridin-1-yl]oxazolo[4,5-b]pyridin-5-yl]-3-hydroxy-5-methyl-benzonitrile or 4-[2-[(3aR,7aS)-6-ethyl-3,3a,4,5,7,7a-hexahydro-2H-pyrrolo[2,3-c]pyridin-1-yl]oxazolo[4,5-b]pyridin-5-yl]-3-hydroxy-5-methyl-benzonitrile] the IC50 was 1 nM.
Compound `CCN1CCC2CCN(c3nc4nc(-c5c(C)cc(C#N)cc5O)ccc4o3)C2C1` (single isomer, unassigned) [Example 72B, 4-[2-[(3aR,7aS)-6-ethyl-3,3a,4,5,7,7a-hexahydro-2H-pyrrolo[2,3-c]pyridin-1-yl]oxazolo[4,5-b]pyridin-5-yl]-3-hydroxy-5-methyl-benzonitrile or 4-[2-[(3aS,7aR)-6-Ethyl-3,3a,4,5,7,7a-hexahydro-2H-pyrrolo[2,3-c]pyridin-1-yl]oxazolo[4,5-b]pyridin-5-yl]-3-hydroxy-5-methyl-benzonitrile] has an IC50 of 310 nM.
`Cc1cc(Cl)cc(O)c1-c1ccc2oc([C@H]3CCC(=O)NC3)nc2n1` (single isomer, unassigned) [Example 73A, (5S)-5-[5-(4-Chloro-2-hydroxy-6-methyl-phenyl)oxazolo[4,5-b]pyridin-2-yl]piperidin-2-one or (5R)-5-[5-(4-Chloro-2-hydroxy-6-methyl-phenyl)oxazolo[4,5-b]pyridin-2-yl]piperidin-2-one] showed an IC50 of 18.7 nM.
In the case of `Cc1cc(Cl)cc(O)c1-c1ccc2oc([C@@H]3CCC(=O)NC3)nc2n1` (single isomer, unassigned) [Example 73B, (5R)-5-[5-(4-Chloro-2-hydroxy-6-methyl-phenyl)oxazolo[4,5-b]pyridin-2-yl]piperidin-2-one or (5S)-5-[5-(4-chloro-2-hydroxy-6-methyl-phenyl)oxazolo[4,5-b]pyridin-2-yl]piperidin-2-one], the IC50 is reported as 78.7 nM.

From patent US20240279237A1, “FUSED BICYCLIC HETEROARYL COMPOUNDS USEFUL AS NLRP3 INHIBITORS” (Hoffmann-La Roche Inc., priority 2021, published 2024)
